Blank lines part the entries; values can stand above or below the compound they belong to.
Experiments:
[1] = molecular target: T1, ATP-dependent translocase ABCB1 (Mus musculus, UniProt P21447); assay: TP_TRANSPORTER: increase in Doxorubicin intracellular accumulation (Doxorubicin: 5 uM, GPFX: 500 uM) in P388/ADR cells; format: functional, cell-based
[2] = molecular target: Multidrug resistance protein 1a (Rattus norvegicus) (UniProt Q6PSM0); assay: TP_TRANSPORTER: […] in biliary excretion by Doxorubicin, Cyclosporin A and Erythromycin in vivo Wistar rat; format: functional, organism-based; details: Bile
Sequence of Multidrug resistance protein 1a (Rattus norvegicus) (Q6PSM0 as listed by the source): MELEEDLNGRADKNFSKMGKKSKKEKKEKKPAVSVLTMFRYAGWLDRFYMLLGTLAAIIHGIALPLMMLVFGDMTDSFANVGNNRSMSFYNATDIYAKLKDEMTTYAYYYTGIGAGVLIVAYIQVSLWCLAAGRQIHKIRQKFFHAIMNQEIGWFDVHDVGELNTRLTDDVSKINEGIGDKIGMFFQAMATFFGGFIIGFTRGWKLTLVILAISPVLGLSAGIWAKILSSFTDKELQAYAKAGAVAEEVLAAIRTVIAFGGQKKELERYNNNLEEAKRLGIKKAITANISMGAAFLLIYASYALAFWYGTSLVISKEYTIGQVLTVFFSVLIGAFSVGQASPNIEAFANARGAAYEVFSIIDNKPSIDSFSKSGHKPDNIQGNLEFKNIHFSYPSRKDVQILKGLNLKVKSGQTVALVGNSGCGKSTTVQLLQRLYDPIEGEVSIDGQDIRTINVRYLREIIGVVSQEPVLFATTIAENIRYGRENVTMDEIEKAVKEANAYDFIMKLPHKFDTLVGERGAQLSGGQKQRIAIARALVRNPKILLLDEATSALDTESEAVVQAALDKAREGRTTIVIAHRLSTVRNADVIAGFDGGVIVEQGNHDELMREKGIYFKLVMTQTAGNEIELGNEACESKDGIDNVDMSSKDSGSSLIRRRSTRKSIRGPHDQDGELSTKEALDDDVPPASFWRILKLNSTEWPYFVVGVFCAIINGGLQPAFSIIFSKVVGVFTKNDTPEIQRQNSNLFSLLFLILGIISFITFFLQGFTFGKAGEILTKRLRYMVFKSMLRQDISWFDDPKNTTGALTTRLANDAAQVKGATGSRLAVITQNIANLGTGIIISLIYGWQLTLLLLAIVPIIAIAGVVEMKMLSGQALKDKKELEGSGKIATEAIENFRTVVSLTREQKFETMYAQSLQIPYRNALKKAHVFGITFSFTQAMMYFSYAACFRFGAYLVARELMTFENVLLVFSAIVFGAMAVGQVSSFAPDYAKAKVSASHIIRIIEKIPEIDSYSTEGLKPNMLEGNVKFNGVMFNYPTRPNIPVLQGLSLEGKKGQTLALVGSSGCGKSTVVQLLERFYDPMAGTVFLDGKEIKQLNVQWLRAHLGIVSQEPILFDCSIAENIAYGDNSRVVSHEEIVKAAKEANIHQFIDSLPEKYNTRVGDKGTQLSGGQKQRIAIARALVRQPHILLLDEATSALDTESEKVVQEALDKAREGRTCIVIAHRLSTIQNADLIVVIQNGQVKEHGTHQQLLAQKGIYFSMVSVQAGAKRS

[3] = molecular target: T1, ATP-dependent translocase ABCB1; assay: TP_TRANSPORTER: increase in Doxorubicin intracellular accumulation (Doxorubicin: 5 uM, Norfloxacin: 500 uM) in P388/ADR cells; format: functional, cell-based
[4] = molecular target: T1, ATP-dependent translocase ABCB1; assay: TP_TRANSPORTER: increase in Doxorubicin intracellular accumulation (Doxorubicin: 5 uM, SPFX: 500 uM) in P388/ADR cells; format: functional, cell-based
[5] = molecular target: T1, ATP-dependent translocase ABCB1; assay: TP_TRANSPORTER: increase in Doxorubicin intracellular accumulation (Doxorubicin: 5 uM, Tosufloxacin: 500 uM) in P388/ADR cells; format: functional, cell-based

T1 sequence (P21447 whole entry): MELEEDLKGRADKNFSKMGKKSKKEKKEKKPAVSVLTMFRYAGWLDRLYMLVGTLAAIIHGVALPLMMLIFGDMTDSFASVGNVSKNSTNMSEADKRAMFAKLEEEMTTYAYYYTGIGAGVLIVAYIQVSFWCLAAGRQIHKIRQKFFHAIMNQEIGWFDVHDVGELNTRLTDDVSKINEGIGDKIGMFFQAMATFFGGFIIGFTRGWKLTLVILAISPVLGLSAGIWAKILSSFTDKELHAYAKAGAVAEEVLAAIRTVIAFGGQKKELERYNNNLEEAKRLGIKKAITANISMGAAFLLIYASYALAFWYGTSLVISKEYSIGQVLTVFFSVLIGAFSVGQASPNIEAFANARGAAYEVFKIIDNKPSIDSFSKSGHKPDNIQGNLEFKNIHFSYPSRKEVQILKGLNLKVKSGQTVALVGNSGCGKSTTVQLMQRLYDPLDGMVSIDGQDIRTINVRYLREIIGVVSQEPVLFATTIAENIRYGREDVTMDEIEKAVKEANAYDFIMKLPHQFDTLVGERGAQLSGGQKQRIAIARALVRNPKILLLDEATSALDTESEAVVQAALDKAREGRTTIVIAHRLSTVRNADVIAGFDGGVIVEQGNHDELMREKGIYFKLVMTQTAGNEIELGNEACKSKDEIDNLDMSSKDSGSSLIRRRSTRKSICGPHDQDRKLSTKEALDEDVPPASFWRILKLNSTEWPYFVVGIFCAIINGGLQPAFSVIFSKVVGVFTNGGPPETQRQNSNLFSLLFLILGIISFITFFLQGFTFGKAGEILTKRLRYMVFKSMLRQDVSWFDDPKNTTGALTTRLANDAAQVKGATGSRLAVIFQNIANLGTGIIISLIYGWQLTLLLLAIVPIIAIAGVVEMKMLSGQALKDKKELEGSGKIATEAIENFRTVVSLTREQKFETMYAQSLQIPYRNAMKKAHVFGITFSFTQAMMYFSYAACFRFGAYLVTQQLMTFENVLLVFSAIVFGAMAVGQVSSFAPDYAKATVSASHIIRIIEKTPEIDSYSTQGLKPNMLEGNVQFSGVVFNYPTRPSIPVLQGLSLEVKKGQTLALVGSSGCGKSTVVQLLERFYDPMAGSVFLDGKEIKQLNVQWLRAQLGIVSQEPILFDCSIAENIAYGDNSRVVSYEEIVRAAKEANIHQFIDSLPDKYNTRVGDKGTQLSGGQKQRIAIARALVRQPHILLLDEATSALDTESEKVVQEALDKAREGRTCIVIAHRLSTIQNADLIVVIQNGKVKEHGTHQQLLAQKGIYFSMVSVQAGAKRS

Activity [2]: substrate [+]
SMILES: Cc1c(F)c(N2CCNC(C)C2)cc2c1c(=O)c(C(=O)O)cn2C1CC1 (stereo not given) [GREPAFLOXACIN]
Activity [1]: inhibitor [(at a rough estimate) 140 % of control]

SMILES: CCn1cc(C(=O)O)c(=O)c2cc(F)c(N3CCNCC3)cc21 [NORFLOXACIN]
Activity [3]: inhibitor [(at a rough estimate) 290 % of control]

SMILES: C[C@@H]1CN(c2c(F)c(N)c3c(=O)c(C(=O)O)cn(C4CC4)c3c2F)C[C@H](C)N1 [SPARFLOXACIN]
Activity [4]: inhibitor [(at a rough estimate) 140 % of control]

SMILES: NC1CCN(c2nc3c(cc2F)c(=O)c(C(=O)O)cn3-c2ccc(F)cc2F)C1 (stereo not given) [TOSUFLOXACIN]
Activity [5]: inhibitor [(at a rough estimate) 200 % of control]

Source: ChEMBL document CHEMBL2074556, “Possible involvement of P-glycoprotein in the biliary excretion of grepafloxacin” (Clin Exp Pharmacol Physiol, 2002)
